The values that follow come from patent US20180353524A1, “CANCER TREATMENT USING 2-DEOXY-2-FLUORO-L-FUCOSE IN COMBINATION WITH A CHECKPOINT INHIBITOR” (SEATTLE GENETICS, INC., priority 2015, published 2018).

Experiment [1] deals with Galectin-3. In words: Activated T-cell expression of Galectin-3 (FACS). The format is cell-based, human. As to conditions: CD3/CD28 activated T-cells, overnight. How it is done:
Purified T-cells were plated in 12-well plates (10^6 cells/well, 1-2 mL T-cell medium) and were activated with CD3/CD28 beads (4 μL beads/2 mL media, Miltenyi Biotec). Cells were incubated at 37° C. overnight and were then analyzed for Galectin-3 expression after fixation and permeabilization followed by FACS analysis.

The test system of experiment [2] is A20 tumor vaccine model. In words: Serum cytokines in A20 vaccine model. The format is in vivo. The settings on record: BALB/c mice, with KLH-Idiotype vaccine vs KLH-Idiotype alone, no depletion. How it is done:
KLH-A20 Id Fab was generated as described in Okeley et al PNAS 2012. A20 cells (ATCC) were cultured in RPMI 1640 with 10% FBS, 10 mM HEPES, 1 mM sodium pyruvate, 50 μM 2-mercaptoethanol and penicillin (100 U/ml)/streptomycin (100 μg/ml) (PS) Immunization groups (BALB/c, Harlan) were injected subcutaneously with the KLH-Fab conjugate (50 μg) with TiterMax adjuvant (1:1) on day-21 with a boost on day-7. 2-deoxy-2-fluoro-L-fucose treatment groups received drinking water containing 20 mM 2-deoxy-2-fluoro-L-fucose beginning on day -14. One week after the second vaccination (day 0), all mice received 2.5×10^6 A20 tumor cells (i.v.). 2-deoxy-2-fluoro-L-fucose treatment was continued until day 21 followed by normal drinking water. Depletion of immune cells was accomplished with depleting antibodies administered on days-6, -5, -4, 0 and +7 (200 μg/mouse i.p.). CD4 or CD8 T-cells depletion by anti-CD4 (GK1.5) or -CD8 (53-6.72) antibody was verified in blood at day-1, 7, 14, 21, 29 (FACS analysis). […] Thus CD4 and CD8 T-cells play a role in the combination activity.
Tissue culture supernatants from T-cell/DC co-cultures described previously were collected and assessed for cytokine changes by Luminex assay. Similarly, blood samples from an A20 vaccine model study were allowed to clot and serum was collected for analysis of cytokines (MCYTOMAG01L1X-13 Mouse Cytokine Magnetic Bead Panel, Millipore).

For experiment [3], the system named is A20 tumor cells. In words: A20 mouse lymphoma study, survival. The format is in vivo, BALB/c mice. How it is done:
A20 cells (ATCC) were cultured in RPMI 1640 with 10% FBS, 10 mM HEPES, 1 mM sodium pyruvate, 50 μM 2-mercaptoethanol and penicillin (100 U/ml)/streptomycin (100 μg/ml) (PS). All mice (BALB/c, n=6/group) were implanted with 1×10^5 A20 tumor cells (i.v.) and were divided into four groups: untreated; treated with 2FF only; treated with anti-PD1 antibody only; and treated with a combination of 2FF with anti-PD1 antibody. 2FF treatment groups received drinking water containing 20 mM 2FF beginning on the day of tumor implantand continued throughout the study. Mice not receiving 2FF were provided with normal drinking water. Anti-PD1 antibody (Ebiosciences, clone J43) treatment groups received three doses of 5 mg/kg every three days starting on day 5 post tumor implant. […] This is compared to only 17% survival in the untreated and the anti-PD1 alone treated groups after about 40 days of treatment lasting to the end of the experiment, and also compared to only 17% survival in 2FF alone treated group after 70 days of treatment also lasting to the end of the experiment at ˜90 days.

Consider `C[C@@H]1OC(O)[C@@H](F)[C@H](O)[C@@H]1O` (stereo partly drawn) [2-deoxy-2-fluoro-L-fucose], for which the “galectin-3 levels in T-cells” value in experiment [1] is reported as “reduction in galectin-3 levels”. Moreover, the “serum cytokines important for immune responses (IL15) in A20 tumor vaccine model” value in experiment [2] was “specific increases in cytokines”. Moreover, the “survival compared to the untreated group” value in experiment [3] (BALB/c mice, i.v. A20 cells, 20 mM 2FF in drinking water, anti-PD1 5 mg/kg q3dx3 from day 5) was “increased survival compared to the untreated group”. The “survival of the mice” value in experiment [3] (after 70 days of treatment lasting to end of experiment at ~90 days, 20 mM 2FF drinking water) was found to be 17%.
